Results as given in patent US20260028354A1, “TETRAHYDRONAPHTHALENE DERIVATIVES AS ESTROGEN RECEPTOR DEGRADERS” (REGENT OF THE UNIVERSITY OF MICHIGAN, priority 2022, published 2026).
Read-outs that look alike come from different tables or passages of the source.

How the values were obtained:
ERα_LBD (GST) = ERα_LBD (GST) (Homo sapiens (Human), UniProt P03372); experiment: IC50 measurements for binding to ERα_LBD (GST), LanthaScreen TR-FRET competitive binding; conditions: ERα_LBD (GST) 4 nM, Fluormone ES2 Green tracer, 60 min; read-out: ERα HTRF IC50
Procedure: In vitro Assay: IC50 Measurements for binding to ERα_LBD (GST) • Final assay conditions: • 1. ERα_LBD (GST) protein: 4 nM • 2. Tb Anti-GST: 2 nM • 3. Fluormone ES2 Green tracer: 3 nM • 4. Incubation time: 60 min • 5. DMSO: 1% • 6. Assay buffer: Adding 1M DTT to Nuclear receptor Buffer K for final 5 mM DTT. • 7. ZPE: 1% DMSO • 8. HPE: 1 μM ARV_471 (positive control) • 9. LanthaScreen® TR-FRET ERα Competitive Binding Assay (ThermoFisher, #A^15887) • 100× Compound preparation
1) Cherry pick 2 μL 10 mM compound stock to column 1 of a 384 intermediate plate. • 2) Add 18 μL DMSO to column 1 to dilute compound to 1 mM. • 3) Transfer 10 μL 1 mM compound to column 1 of a LDV plate. • 2) Add 6 μl DMSO to column 2-10 of the LDV plate. • 3) Compounds undergo 3-fold serial dilution (3 μL+6 μL) in DMSO. • 4) Transfer 120 nL compound solution to assay plate. ZPE: 120 nL 100% DMSO • Procedure:
Complete nuclear receptor buffer K was prepared by adding 1 M DTT to nuclear receptor buffer K for a final concentration of 5 mM DTT. Complete nuclear receptor buffer K must be prepared fresh daily, 2X protein solution was prepared using complete nuclear receptor buffer K containing 8 nM ERα_LBD (GST) and 4 nM Tb Anti-GST. Then, 2X Fluormone ES2 Green tracer (6 nM) was prepared using complete nuclear receptor buffer K. Add 6 μL 2X Fluormone ES2 green tracer into a compound plate (PerkinElmer 6008289) by dragonfly with one-tips-addition. Subsequently, 6 μL 2× protein solution was added into the plate. The 384-well plate was mixed on a plate shaker and incubated at room temperature protected from light for 60 min. The plate was scaled with a cover to minimize evaporation. The plate was read at wavelengths of 520 nm and 495 nm. The TR-FRET ratio was calculated by dividing the emission signal at 520 nm by the emission signal at 495 nm. A binding curve was generated by plotting the emission ratio vs, the log [ligand]. To determine the IC50 value, fit the data using XL-fit for a sigmoidal dose-response.

ER in MCF-7 cells = ER in MCF-7 cells (Homo sapiens (Human), UniProt P03372); experiment: In-cell Western (ICW) ER degradation assay in MCF-7 cells; format: cell-based; conditions: for DC50: MCF-7, ER degradation, read-out: MCF7 DC50
ER in T47D cells = ER in T47D cells (Homo sapiens (Human), UniProt P03372); experiment: In-cell Western (ICW) ER degradation assay in T47D cells; format: cell-based; conditions: for DC50: ER degradation
MCF-7 cells = experiment: CellTiter-Glo (CTG) cell proliferation assay in MCF-7 cells; format: cell-based; conditions: MCF-7 cell proliferation
Text: CellTiter-Glo® (CTG) Assays in MCF-7 and T47D Cell Lines.
In vitro Assay: MCF-7 and T47D CTG assay

CRBN/DDB1 = CRBN/DDB1 (Homo sapiens (Human), UniProt Q96SW2); format: binding; conditions: His tagged CRBN+DDB1, Cy5-labeled Thalidomide probe, one hour; read-out: CRBN HTRF IC50
Procedure: The binding potency was determined using HTRF assay technology (Perkin Elmer). Compounds were serially diluted in DMSO and […] volume was transferred to white 384-well plate.

[1] = MCF7, MCF-7, maximal ER degradation, 16 hrs treatment, read-out: MCF7 Dmax
[2] = maximal ER degradation, 16 hrs treatment, read-out: T47D Dmax
[3] = Homo sapiens, MCF7, 144 h, Day 6
[4] = MCF7, read-out: MCF7 Dmax, MCF-7, maximal ER degradation, 16 hrs treatment
[5] = read-out: T47D Dmax, T47D, maximal ER degradation, 16 hrs treatment

Chain of CRBN/DDB1 (Q96SW2 whole entry, species assumed): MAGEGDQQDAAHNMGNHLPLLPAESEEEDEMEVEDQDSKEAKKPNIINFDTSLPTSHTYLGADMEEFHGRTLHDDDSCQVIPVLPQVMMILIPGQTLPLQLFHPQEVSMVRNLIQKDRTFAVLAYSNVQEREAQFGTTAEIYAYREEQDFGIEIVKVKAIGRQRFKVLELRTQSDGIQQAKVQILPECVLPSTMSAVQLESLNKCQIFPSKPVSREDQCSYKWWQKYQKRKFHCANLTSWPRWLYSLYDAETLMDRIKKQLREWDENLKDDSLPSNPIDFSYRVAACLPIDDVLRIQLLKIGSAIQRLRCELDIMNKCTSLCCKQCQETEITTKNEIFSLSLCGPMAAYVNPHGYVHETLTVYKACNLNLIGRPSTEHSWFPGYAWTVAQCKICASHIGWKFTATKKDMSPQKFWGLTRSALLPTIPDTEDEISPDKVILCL
Chain of CRBN/DDB1 (Q16531 whole entry partner, species assumed): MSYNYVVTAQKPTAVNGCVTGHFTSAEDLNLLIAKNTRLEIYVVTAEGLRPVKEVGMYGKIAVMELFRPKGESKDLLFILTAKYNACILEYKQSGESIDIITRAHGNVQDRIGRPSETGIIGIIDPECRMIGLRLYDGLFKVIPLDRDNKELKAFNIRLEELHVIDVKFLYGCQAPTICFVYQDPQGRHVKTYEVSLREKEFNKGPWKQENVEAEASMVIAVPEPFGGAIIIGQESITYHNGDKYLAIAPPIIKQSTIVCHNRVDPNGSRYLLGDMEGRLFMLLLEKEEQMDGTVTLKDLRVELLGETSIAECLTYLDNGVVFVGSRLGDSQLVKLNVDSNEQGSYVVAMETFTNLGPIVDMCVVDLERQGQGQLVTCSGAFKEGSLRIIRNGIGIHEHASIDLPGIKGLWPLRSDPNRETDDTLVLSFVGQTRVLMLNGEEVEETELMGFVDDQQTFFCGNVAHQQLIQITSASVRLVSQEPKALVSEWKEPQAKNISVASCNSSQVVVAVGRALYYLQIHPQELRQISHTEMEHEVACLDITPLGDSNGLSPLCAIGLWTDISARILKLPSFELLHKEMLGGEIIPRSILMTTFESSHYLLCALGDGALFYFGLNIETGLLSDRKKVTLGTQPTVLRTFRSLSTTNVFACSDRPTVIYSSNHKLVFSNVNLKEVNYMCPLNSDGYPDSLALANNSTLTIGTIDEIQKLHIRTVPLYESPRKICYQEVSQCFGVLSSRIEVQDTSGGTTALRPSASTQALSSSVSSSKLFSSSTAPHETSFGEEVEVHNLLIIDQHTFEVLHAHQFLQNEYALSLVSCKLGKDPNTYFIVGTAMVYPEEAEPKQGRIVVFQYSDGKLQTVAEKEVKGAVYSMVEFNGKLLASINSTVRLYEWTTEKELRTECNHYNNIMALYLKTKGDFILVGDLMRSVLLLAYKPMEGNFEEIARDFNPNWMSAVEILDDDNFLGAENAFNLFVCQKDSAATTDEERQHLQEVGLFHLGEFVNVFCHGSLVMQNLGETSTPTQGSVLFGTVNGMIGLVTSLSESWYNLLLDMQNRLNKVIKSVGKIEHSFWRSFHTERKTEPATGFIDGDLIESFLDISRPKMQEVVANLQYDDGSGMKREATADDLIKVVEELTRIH
Chain of ERα_LBD (GST) (P03372 311-547): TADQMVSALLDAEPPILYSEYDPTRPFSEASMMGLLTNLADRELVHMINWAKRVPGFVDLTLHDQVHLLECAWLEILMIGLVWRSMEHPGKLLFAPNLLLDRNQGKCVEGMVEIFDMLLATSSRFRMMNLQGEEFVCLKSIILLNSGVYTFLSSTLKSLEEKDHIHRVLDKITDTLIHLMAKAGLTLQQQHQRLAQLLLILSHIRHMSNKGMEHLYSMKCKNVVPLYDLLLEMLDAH
Chain of ER in T47D cells (P03372 whole entry): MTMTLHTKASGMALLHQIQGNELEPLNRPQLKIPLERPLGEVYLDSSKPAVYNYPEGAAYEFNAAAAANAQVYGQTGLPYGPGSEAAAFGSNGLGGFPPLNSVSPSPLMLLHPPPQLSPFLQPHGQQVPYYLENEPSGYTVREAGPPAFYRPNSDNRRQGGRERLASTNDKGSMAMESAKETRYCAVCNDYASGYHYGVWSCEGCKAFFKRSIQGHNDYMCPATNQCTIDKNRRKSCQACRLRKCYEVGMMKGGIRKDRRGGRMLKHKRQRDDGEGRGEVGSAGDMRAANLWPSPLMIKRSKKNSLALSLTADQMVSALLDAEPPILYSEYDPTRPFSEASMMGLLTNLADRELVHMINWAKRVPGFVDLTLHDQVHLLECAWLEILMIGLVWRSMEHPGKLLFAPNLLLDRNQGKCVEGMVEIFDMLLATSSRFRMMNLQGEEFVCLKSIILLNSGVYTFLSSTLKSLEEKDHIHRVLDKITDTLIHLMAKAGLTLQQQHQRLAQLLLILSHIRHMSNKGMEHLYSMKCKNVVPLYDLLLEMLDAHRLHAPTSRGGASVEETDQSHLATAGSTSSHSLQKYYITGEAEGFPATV
Chain of ER in MCF-7 cells (P03372 whole entry): as above

| Molecule | IC50 (ERα_LBD (GST)) | Dmax (ER in MCF-7 cells; [1]) | DC50 (ER in MCF-7 cells; 16 hrs treatment) | DC50 (ER in T47D cells; 16 hrs treatment) | Dmax (ER in T47D cells; [2]) | IC50 (MCF-7 cells; [3]) | IC50 (CRBN/DDB1) | Dmax (ER in MCF-7 cells; [4]) | Dmax (ER in T47D cells; [5]) | MCF7 Dmax (ER in MCF-7 cells; MCF-7, maximal ER degradation, 16 hrs treatment) | IC50 (MCF-7 cells; Day 6, read-out: MCF7 IC50) |
| --- | --- | --- | --- | --- | --- | --- | --- | --- | --- | --- | --- |
| O=C1CC[C@H](N2Cc3c(ccc4c3OC[C@H]3CN(C[C@H]5COC6(C5)CN(c5ccc([C@@H]7c8ccc(O)cc8CC[C@@H]7c7ccccc7)cc5)C6)CCN43)C2=O)C(=O)N1 (single isomer, unassigned) [Compound A68] | < 10 nM | 50 to 75% | < 1 nM | < 1 nM | > 75% | 10 to 100 nM | < 50 nM | – | – | – | – |
| COc1cc(N2CCC(CN3CCN4c5ccc6c(c5OC[C@@H]4C3)CN([C@@H]3CCC(=O)NC3=O)C6=O)CC2)ccc1[C@H]1c2ccc(O)cc2CC[C@H]1c1ccccc1 (stereo in doubt) [Compound A24, (R)-3-((S)-7-((1-(4-((1R,2R)-6-hydroxy-2-phenyl-1,2,3,4-tetrahydronaphthalen-1-yl)-3-methoxyphenyl)piperidin-4-yl)methyl)-1-oxo-1,3,5,5a,6,7,8,9-oCtahydro-2H-pyrazino [1′,2′:4,5][1,4]oxazino[2,3-e]isoindol-2-yl)piperidine-2,6-dione] | < 10 nM | > 75% | < 1 nM | < 1 nM | > 75% | 10 to 100 nM | 50 to 500 nM | – | – | – | – |
| O=C1CC[C@H](N2Cc3cc4c(cc3C2=O)OCC42CCN(C[C@@H]3COC4(CCN(c5ccc([C@H]6c7ccc(O)cc7CC[C@H]6c6ccccc6)cc5)CC4)C3)CC2)C(=O)N1 [Compound A25, (S)-3-(1′-(((R)-8-(4-((1S,2R)-6-hydroxy-2-phenyl-1,2,3,4-tetrahydronaphthalen-1-yl)phenyl)-1-oxa-8-azaspiro[4.5]decan-3-yl)methyl)-7-oxo-5,7-dihydro-2H,6H-spiro[furo[2,3-f]isoindole-3,4′-piperidin]-6-yl)piperidine-2,6-dione] | < 10 nM | – | < 1 nM | < 1 nM | – | < 10 nM | – | > 75% | > 75% | – | – |
| O=C1CC[C@H](N2Cc3c(ccc4c3OC[C@H]3CN(CC5CCN(c6ccc([C@@H]7c8ccc(O)cc8CC[C@@H]7c7ccccc7)cc6)CC5)CCN43)C2=O)C(=O)N1 [Compound A71, (S)-3-((R)-7-((1-(4-((1R,2S)-6-hydroxy-2-phenyl-1,2,3,4-tetra-hydronaphthalen-1-yl)phenyl)-piperidin-4-yl)methyl)-1-oxo-1,3,5,5a,6,7,8,9-octahydro-2H-pyrazino[1′,2′:4,5][1,4]oxazino [2,3-e]isoindol-2-yl)piperidine-2,6-dione] | < 10 nM | > 75% | < 1 nM | – | – | < 10 nM | 50 to 500 nM | – | – | – | – |
| O=C1CC[C@H](N2Cc3cc4c(cc3C2=O)OC[C@@H]2CN(C[C@H]3COC5(C3)CN(c3ccc([C@@H]6c7ccc(O)cc7CC[C@@H]6c6ccccc6)cc3)C5)CCN42)C(=O)N1 [Compound A72, (S)-3-((S)-3-(((S)-2-(4-((1R, 2S)-6-hydroxy-2-phenyl-1,2,3,4-tetrahydronaphthalen-1-yl)phenyl)-5-oxa-2-azaspiro [3.4]octan-7-yl)methyl)-8-oxo-1,2,3,4,4a,5,8,10-octahydro-9H-pyrazino[1′,2′:4,5][1,4]oxazino[2,3-f]isoindol-9-yl)-piperidine-2,6-dione] | < 10 nM | 50 to 75% | < 1 nM | < 1 nM | > 75% | < 10 nM | 50 to 500 nM | – | – | – | – |
| O=C1CC[C@H](N2Cc3cc4c(cc3C2=O)OC[C@@H]2CN(C[C@@H]3COC5(C3)CN(c3ccc([C@@H]6c7ccc(O)cc7CC[C@@H]6c6ccccc6)cc3)C5)CCN42)C(=O)N1 [Compound A73, (S)-3-((S)-3-(((R)-2-(4-((1R,2S)-6-hydroxy-2-phenyl-1,2,3,4-tetrahydronaphthalen-1-yl)phenyl)-5-oxa-2-azaspiro[3.4]octan-7-yl)methyl)-8-oxo-1,2,3,4,4a,5,8,10-octahydro-9H-pyrazino[1′,2′:4,5][1,4]oxazino[2,3-f]isoindol-9-yl)piperidine-2,6-dione] | < 10 nM | > 75% | < 1 nM | < 1 nM | > 75% | 10 to 100 nM | 500 to 5000 nM | – | – | – | – |
| COc1cc(N2CCC(CN3CCN4c5ccc(C(=O)N[C@H]6CCC(=O)NC6=O)nc5OC[C@H]4C3)CC2)c(F)cc1[C@@H]1c2ccc(O)cc2CC[C@@H]1c1ccccc1 [Compound A94, (R)-N-((S)-2,6-dioxopiperidin-3-yl)-3-((1-(2-fluoro-4-((1S,2S)-6-hydroxy-2-phenyl-1,2,3,4-tetrahydronaphthalen-1-yl)-5-methoxyphenyl)piperidin-4-yl)methyl)-1,2,3,4,4a,5-hexahydropyrazino[1,2-d]pyrido[2,3-b][1,4]oxazine-8-carboxamide] | < 10 nM | > 75% | < 1 nM | < 1 nM | > 75% | – | > 5000 nM | – | – | – | – |
| COc1cc(N2CCC3(CC2)CC(CN2CCC4(CC2)COc2c4ccc4c2CN([C@H]2CCC(=O)NC2=O)C4=O)C3)ccc1[C@@H]1c2ccc(O)cc2CC[C@@H]1c1ccccc1 [Compound A95, (S)-3-(1′-((7-(4-((1S,2S)-6-hydroxy-2-phenyl-1,2,3,4-tetra-hydronaphthalen-1-yl)-3-meth-oxyphenyl)-7-azaspiro[3.5]nonan-2-yl)methyl)-6-oxo-6,8-dihydro-2H,7H-spiro[furo[2,3-e]isoindole-3,4′-piperidin]-7-yl)piperidine-2,6-dione] | < 10 nM | – | < 1 nM | < 1 nM | – | – | < 50 nM | > 75% | > 75% | – | – |
| O=C1CC[C@H](N2Cc3c(ccc4c3OCC43CCN(CC4CC5(CCN(c6ccc([C@@H]7c8ccc(O)cc8CC[C@@H]7c7ccccc7)cn6)CC5)C4)CC3)C2=O)C(=O)N1 [Compound A116, (S)-3-(1′-((7-(5-((1S,2S)-6-hydroxy-2-phenyl-1,2,3,4-tetra-hydronaphthalen-1-yl)pyridin-2-yl)-7-azaspiro[3.5]nonan-2-yl)methyl)-6-oxo-6,8-dihydro-2H,7H-spiro[furo[2,3-e]iso-indole-3,4′-piperidin]-7-yl)-piperidine-2,6-dione] | < 10 nM | – | < 1 nM | < 1 nM | – | – | < 50 nM | 50 to 75% | > 75% | – | – |
| O=C1CC[C@H](N2Cc3c(ccc4c3OCC43CCN(CC4CCC5(CC4)CN(c4ncc([C@@H]6c7ccc(O)cc7CC[C@@H]6c6ccccc6)cn4)C5)CC3)C2=O)C(=O)N1 [Compound A154, (S)-3-(1′-((2-(5-((1S,2S)-6-hydroxy-2-phenyl-1,2,3,4-tetrahydronaphthalen-1-yl)pyrimidin-2-yl)-2-azaspiro[3.5]nonan-7-yl)methyl)-6-oxo-6,8-dihydro-2H,7H-spiro[furo[2,3-e]isoindole-3,4′-piperidin]-7-yl)piperidine-2,6-dione] | < 10 nM | – | < 1 nM | < 1 nM | – | – | < 50 nM | 50 to 75% | > 75% | – | – |
| (S)-3-(1′-(((S)-2-(4-((1R,2S)-6- hydroxy-2-phenyl-1,2,3,4- tetrahydronaphthalen-1- yl)phenyl)-5-oxa-2- azaspiro[3.4]octan-7-yl)methyl)- 7-oxo-5,7-dihydro-2H,6H- spiro[furo[2,3-f]isoindole-3,4′- piperidin]-6-yl)piperidine-2,6- dione [Compound A76] | < 10 nM | – | < 1 nM | – | – | – | 50 to 500 nM | – | – | A (“A”: >=75%) | < 10 nM |
